# Assay results reported in patent US9695155B2, “Herbicidal substituted pyrimidinyloxy benzene compounds” (E. I. DU PONT DE NEMOURS AND COMPANY, priority 2013, dated 2017).
# Legend:
# rice = assay: Test C flooded paddy test; type: in vivo, Oryza sativa; conditions: Flood, scale 0 to 100 (0 no effect, 100 complete control), 13 to 15 days
# In short: (§1)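 Ratings were visual and made relative to untreated controls after 13 to 15 greenhouse days.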
# ducksalad = assay: Test C flooded paddy test; type: in vivo, Heteranthera limosa; conditions: Flood, scale 0 to 100 (0 no effect, 100 complete control), 13 to 15 days
# In short: as §1
# barnyardgrass [1] = assay: Test C flooded paddy test; type: in vivo, Echinochloa crus-galli; conditions: Flood, scale 0 to 100 (0 no effect, 100 complete control), 13 to 15 days
# In short: as §1
# soybean = assay: Test E preemergence; type: in vivo, Glycine max; conditions: for Soybean plant response rating: scale 0 to 100 (0 no effect, 100 complete control); for Plant response rating, Soybean: scale 0 to 100, 0 no effect, 100 complete control
# In short: (§2)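 Compound in a non-phytotoxic solvent mixture with surfactant was applied preemergence to seeds in silt loam soil, or postemergence to plants 2 to 18 cm tall grown in peat-based potting medium. Plants were kept in a greenhouse for 14 to 21 days, then rated visually against untreated controls on a 0 (no effect) to 100 (complete control) scale.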
# velvetleaf = assay: Test E preemergence; type: in vivo, Abutilon theophrasti; conditions: for Velvetleaf plant response rating: scale 0 to 100 (0 no effect, 100 complete control); for Plant response rating, Velvetleaf: scale 0 to 100, 0 no effect, 100 complete control
# In short: as §2
# wild poinsettia = assay: Test E preemergence; type: in vivo, Euphorbia heterophylla; conditions: for Poinsettia, Wild plant response rating: scale 0 to 100 (0 no effect, 100 complete control); for Plant response rating, Poinsettia, Wild: scale 0 to 100, 0 no effect, 100 complete control
# In short: as §2
# waterhemp = assay: Test E preemergence; type: in vivo, Amaranthus rudis; conditions: for Waterhemp plant response rating: scale 0 to 100 (0 no effect, 100 complete control); for Plant response rating, Waterhemp: scale 0 to 100, 0 no effect, 100 complete control
# In short: as §2
# Brazilian crabgrass = assay: Test E preemergence; type: in vivo, Digitaria horizontalis; conditions: for Crabgrass, Brazil plant response rating: scale 0 to 100 (0 no effect, 100 complete control); for Plant response rating, Crabgrass, Brazil: scale 0 to 100, 0 no effect, 100 complete control
# In short: as §2
# giant foxtail = assay: Test E preemergence; type: in vivo, Setaria faberii; conditions: for Foxtail, Giant plant response rating: scale 0 to 100 (0 no effect, 100 complete control); for Plant response rating, Foxtail, Giant: scale 0 to 100, 0 no effect, 100 complete control
# In short: as §2
# green foxtail = assay: Test E preemergence; type: in vivo, Setaria viridis; conditions: for Foxtail, Green plant response rating: scale 0 to 100 (0 no effect, 100 complete control); for Plant response rating, Foxtail, Green: scale 0 to 100, 0 no effect, 100 complete control
# In short: as §2
# sandbur = assay: Test E preemergence; type: in vivo, Cenchrus echinatus; conditions: for Sandbur plant response rating: scale 0 to 100 (0 no effect, 100 complete control); for Plant response rating, Sandbur: scale 0 to 100, 0 no effect, 100 complete control
# In short: as §2
# Italian ryegrass = assay: Test E preemergence; type: in vivo, Lolium multiflorum; conditions: for Ryegrass, Italian plant response rating: scale 0 to 100 (0 no effect, 100 complete control); for Plant response rating, Ryegrass, Italian: scale 0 to 100, 0 no effect, 100 complete control
# In short: as §2
# yellow nutsedge = assay: Test E preemergence; type: in vivo, Cyperus esculentus; conditions: for Nutsedge, Yellow plant response rating: scale 0 to 100 (0 no effect, 100 complete control); for Plant response rating, Nutsedge, Yellow: scale 0 to 100, 0 no effect, 100 complete control
# In short: as §2
# hairy beggarticks = assay: Test E preemergence; type: in vivo, Bidens pilosa; conditions: preemergence; for Beggarticks plant response rating: scale 0 to 100 (0 no effect, 100 complete control); for Plant response rating, Beggarticks: scale 0 to 100, 0 no effect, 100 complete control
# In short: as §2
# corn = assay: Test E postemergence; type: in vivo, Zea mays
# In short: as §2
# palmer pigweed = assay: Test E postemergence; type: in vivo, Amaranthus palmeri
# In short: as §2
# fall panicum = assay: Test E postemergence; type: in vivo, Panicum dichotomiflorum
# In short: as §2
# barnyardgrass [2] = assay: Test E postemergence; type: in vivo, Echinochloa crus-galli
# In short: as §2
# [3] = Postemergence, 31 g ai/ha, scale 0 to 100
# [4] = Postemergence, 62 g ai/ha, scale 0 to 100
# [5] = Postemergence, 125 g ai/ha, scale 0 to 100
# [6] = Postemergence, 250 g ai/ha, scale 0 to 100
# [7] = postemergence, 16 g ai/ha, scale 0 to 100, 0 no effect, 100 complete control
smiles,measurement,setting,value
N#Cc1cnn(-c2c(C#N)cccc2Oc2ncc(Cl)cn2)c1 [Compound 200],"Plant response rating, Rice",rice; 31 g ai/ha,0
same,"Plant response rating, Rice",rice; 62 g ai/ha,0
same,"Plant response rating, Rice",rice; 125 g ai/ha,0
same,"Plant response rating, Rice",rice; 250 g ai/ha,0
same,"Plant response rating, Ducksalad",ducksalad; 31 g ai/ha,0
same,"Plant response rating, Ducksalad",ducksalad; 62 g ai/ha,0
same,"Plant response rating, Ducksalad",ducksalad; 125 g ai/ha,20
same,"Plant response rating, Ducksalad",ducksalad; 250 g ai/ha,80
same,"Plant response rating, Barnyardgrass",barnyardgrass [1]; 31 g ai/ha,0
same,"Plant response rating, Barnyardgrass",barnyardgrass [1]; 62 g ai/ha,0
same,"Plant response rating, Barnyardgrass",barnyardgrass [1]; 125 g ai/ha,0
same,"Plant response rating, Barnyardgrass",barnyardgrass [1]; 250 g ai/ha,25
same,Soybean plant response rating,soybean; 31 g ai/ha,25
same,Soybean plant response rating,soybean; 62 g ai/ha,35
same,"Plant response rating, Soybean",soybean; 125 g ai/ha,65
same,"Plant response rating, Soybean",soybean; 250 g ai/ha,90
same,Velvetleaf plant response rating,velvetleaf; 31 g ai/ha,35
same,Velvetleaf plant response rating,velvetleaf; 62 g ai/ha,80
same,"Plant response rating, Velvetleaf",velvetleaf; 125 g ai/ha,100
same,"Plant response rating, Velvetleaf",velvetleaf; 250 g ai/ha,100
same,"Poinsettia, Wild plant response rating",wild poinsettia; 31 g ai/ha,50
same,"Poinsettia, Wild plant response rating",wild poinsettia; 62 g ai/ha,50
same,"Plant response rating, Poinsettia, Wild",wild poinsettia; 125 g ai/ha,90
same,"Plant response rating, Poinsettia, Wild",wild poinsettia; 250 g ai/ha,95
same,Waterhemp plant response rating,waterhemp; 31 g ai/ha,100
same,Waterhemp plant response rating,waterhemp; 62 g ai/ha,100
same,"Plant response rating, Waterhemp",waterhemp; 125 g ai/ha,100
same,"Plant response rating, Waterhemp",waterhemp; 250 g ai/ha,100
same,"Crabgrass, Brazil plant response rating",Brazilian crabgrass; 16 g ai/ha,30
same,"Crabgrass, Brazil plant response rating",Brazilian crabgrass; 31 g ai/ha,85
same,"Crabgrass, Brazil plant response rating",Brazilian crabgrass; 62 g ai/ha,100
same,"Plant response rating, Crabgrass, Brazil",Brazilian crabgrass; 125 g ai/ha,100
same,"Plant response rating, Crabgrass, Brazil",Brazilian crabgrass; 250 g ai/ha,100
same,"Foxtail, Giant plant response rating",giant foxtail; 16 g ai/ha,0
same,"Foxtail, Giant plant response rating",giant foxtail; 31 g ai/ha,0
same,"Foxtail, Giant plant response rating",giant foxtail; 62 g ai/ha,0
same,"Plant response rating, Foxtail, Giant",giant foxtail; 125 g ai/ha,25
same,"Plant response rating, Foxtail, Giant",giant foxtail; 250 g ai/ha,70
same,"Foxtail, Green plant response rating",green foxtail; 16 g ai/ha,0
same,"Foxtail, Green plant response rating",green foxtail; 31 g ai/ha,5
same,"Foxtail, Green plant response rating",green foxtail; 62 g ai/ha,30
same,"Plant response rating, Foxtail, Green",green foxtail; 125 g ai/ha,75
same,"Plant response rating, Foxtail, Green",green foxtail; 250 g ai/ha,100
same,Sandbur plant response rating,sandbur; 31 g ai/ha,0
same,Sandbur plant response rating,sandbur; 62 g ai/ha,5
same,"Plant response rating, Sandbur",sandbur; 125 g ai/ha,40
same,"Plant response rating, Sandbur",sandbur; 250 g ai/ha,70
same,"Ryegrass, Italian plant response rating",Italian ryegrass; 31 g ai/ha,0
same,"Ryegrass, Italian plant response rating",Italian ryegrass; 62 g ai/ha,20
same,"Plant response rating, Ryegrass, Italian",Italian ryegrass; 125 g ai/ha,60
same,"Plant response rating, Ryegrass, Italian",Italian ryegrass; 250 g ai/ha,80
same,"Nutsedge, Yellow plant response rating",yellow nutsedge; 31 g ai/ha,0
same,"Nutsedge, Yellow plant response rating",yellow nutsedge; 62 g ai/ha,0
same,"Plant response rating, Nutsedge, Yellow",yellow nutsedge; 125 g ai/ha,40
same,"Plant response rating, Nutsedge, Yellow",yellow nutsedge; 250 g ai/ha,70
same,Beggarticks plant response rating,hairy beggarticks; 16 g ai/ha,0
same,Beggarticks plant response rating,hairy beggarticks; 31 g ai/ha,10
same,Beggarticks plant response rating,hairy beggarticks; 62 g ai/ha,35
same,"Plant response rating, Beggarticks",hairy beggarticks; 125 g ai/ha,75
same,"Plant response rating, Beggarticks",hairy beggarticks; 250 g ai/ha,95
same,"Plant response rating, Corn",corn; [3],10
same,"Plant response rating, Corn",corn; [4],15
same,"Plant response rating, Corn",corn; [5],20
same,"Plant response rating, Corn",corn; [6],25
same,"Plant response rating, Corn",corn; [7],10
same,"Plant response rating, Pigweed, Palmer",palmer pigweed; [3],70
same,"Plant response rating, Pigweed, Palmer",palmer pigweed; [4],75
same,"Plant response rating, Pigweed, Palmer",palmer pigweed; [5],98
same,"Plant response rating, Pigweed, Palmer",palmer pigweed; [6],100
same,"Plant response rating, Pigweed, Palmer",palmer pigweed; [7],40
same,"Plant response rating, Panicum, Fall",fall panicum; [3],10
same,"Plant response rating, Panicum, Fall",fall panicum; [4],20
same,"Plant response rating, Panicum, Fall",fall panicum; [5],50
same,"Plant response rating, Panicum, Fall",fall panicum; [6],50
same,"Plant response rating, Panicum, Fall",fall panicum; [7],10
same,"Plant response rating, Barnyardgrass",barnyardgrass [2]; [3],0
same,"Plant response rating, Barnyardgrass",barnyardgrass [2]; [4],0
same,"Plant response rating, Barnyardgrass",barnyardgrass [2]; [5],20
same,"Plant response rating, Barnyardgrass",barnyardgrass [2]; [6],40
same,"Plant response rating, Barnyardgrass",barnyardgrass [2]; [7],0
